# Entries after “also recorded” stand apart in the source; their conditions may differ.
# Experiments:
# [1] = test system: rumen epithelium from cattle; experiment: Ussing chamber: ammonium-induced transepithelial short-circuit current (Isc) across isolated rumen epithelium; format: cell-based; conditions: for influence on ammonium-induced conductivity / transport across rumen epithelium (profile in words): no concentration stated
# Text: The experiments on the intact epithelium take place as already specified (Abdoun, Stumpff et al. 2005; Abdoun, Stumpff et al. 2010). The measuring techniques used are a combination of the Ussing chamber technique developed by Ussing (1949) and the microelectrode technique.
# When examining epithelial transport processes with the Ussing chamber, the epithelium is installed in a special chamber, which makes it possible to rinse the two sides of the epithelium (apical: food side; basolateral: blood side) separately of each other with buffer solutions of various composition, wherein the electrophysiological parameters (current and voltage) across the epithelium are traced. Hereby, it is made possible to differentiate between the transport of an uncharged substance (e.g. ammonia, NH3) and the transport of a charged substance (e.g. ammonium, NH4^+), as the former takes place without a change in current and voltage, whereas the latter is coupled with the transfer of a charge and thus changes the transepithelial electrical parameters.
# With the help of a special modification, the reaction of individual epithelia to solution changes, taking place very rapidly and smoothly, is also examined over time. Hereby, for example, the reproducibility of a pharmacological intervention on the same piece of epithelium can very well be examined. This modification of the classic Ussing chamber technique is particularly, albeit not exclusively, used for the comparative “screening” of the various substances which are subject of an aspect of the present invention.
# The epithelium is horizontally clamped into a modified Ussing chamber, wherein the mucosal side faces upwards. The chamber made of plexi-glass has a cross-section surface of 0.79 cm^2, which is corrected to 1 cm^2. As a protection against damages on the edges of the epithelium, “edge damage”, a silicone ring is in each case placed between chamber and epithelium. The two resulting chambers (mucosal and serosal) are each supplied by their own perfusion system (4-channel-stand-pump, Ismatec SA). With three-way valves, an independent solution change between altogether eight solutions is possible in the two chambers. During storage, the solutions are gassed in their containers with 100% O2. To warm the solutions up to 37° C., the thin perfusion tubes run through a heat exchanger pump. The suction device (Masterflex R/S, Cole Parmer Instrument Company) present in both chambers guarantees a rapid and safe change of solution. In order to ensure that there are no solution change artefacts when adding agonists and antagonists, the substances are pipetted into the respective solution, wherein the gassing ensures a rapid mixing. In this way, pressure fluctuations or an interruption of the flow through the chamber can be safely precluded.
# As in the conventional Ussing chamber technique, there are in each case two electrodes near the tissue and two electrodes distant from the tissue for measuring the transepithelial potential difference and the transepithelial current (Isc). The connections between the Ag/AgCl electrodes, which are filled with 3 M KCl, are established via agar bridges. Just as in Strecker (Strecker 2011), the measuring chamber is connected to a “voltage clamp” installation (Ussing chamber unit) in assembly with a microelectrode amplifier (both Biomedical Instruments Co., Germering). A micromanipulator (MF 500) installed above the measuring chamber offers the possibility to move the microelectrode in fine μm steps. Additionally, a microscope as well as a cold-light source are located above the apparatus.
# Menthol (Sigma-Aldrich) was dissolved at a concentration of 1 mol·l^−1 in ethanol and pipetted into the used test solution containing ammonium. For an end concentration of 1 mmol·l^−1, 20 μl of this stock solution was added to 20 ml test solution; for 200 μmol·l^−1 correspondingly less. In control experiments, corresponding amounts of pure ethanol were added to the test solution.
# [2] = test system: bacteria flora in the ruminal fluid; conditions: in vitro, thymol 3-12 g/60 l; cited from earlier work
# [3] = test system: bacteria flora; conditions: 1.5 mM thymol (corresponding to 14 g/60 l ruminal fluid); cited from earlier work
# [4] = corresponding to 30 g/60 l; cited from earlier work
# [5] = biological target: T1, TRPV3 (Homo sapiens, UniProt Q8NET8); conditions: cited from earlier work
# T1 sequence (Q8NET8 1-790): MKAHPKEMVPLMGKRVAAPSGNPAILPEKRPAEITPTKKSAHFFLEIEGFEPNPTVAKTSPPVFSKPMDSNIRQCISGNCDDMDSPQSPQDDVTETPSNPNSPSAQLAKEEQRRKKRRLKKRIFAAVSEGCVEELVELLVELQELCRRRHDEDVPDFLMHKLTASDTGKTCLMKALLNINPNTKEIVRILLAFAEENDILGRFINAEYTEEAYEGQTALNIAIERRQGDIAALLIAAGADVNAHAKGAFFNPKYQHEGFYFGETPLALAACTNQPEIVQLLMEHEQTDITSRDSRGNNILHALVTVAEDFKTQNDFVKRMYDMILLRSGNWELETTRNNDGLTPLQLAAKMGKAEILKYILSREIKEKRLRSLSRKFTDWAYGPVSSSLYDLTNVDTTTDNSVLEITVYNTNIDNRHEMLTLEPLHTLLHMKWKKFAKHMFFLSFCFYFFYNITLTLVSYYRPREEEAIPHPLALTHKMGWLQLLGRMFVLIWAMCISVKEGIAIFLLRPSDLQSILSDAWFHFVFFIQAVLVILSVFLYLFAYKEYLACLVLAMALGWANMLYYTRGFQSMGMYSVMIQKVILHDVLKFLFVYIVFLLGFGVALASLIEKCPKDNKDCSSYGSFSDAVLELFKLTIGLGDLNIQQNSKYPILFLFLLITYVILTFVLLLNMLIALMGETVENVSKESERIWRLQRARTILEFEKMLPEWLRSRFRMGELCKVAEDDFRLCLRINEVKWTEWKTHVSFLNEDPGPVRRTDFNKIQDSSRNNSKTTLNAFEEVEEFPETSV
# [6] = test system: rumen epithelium; experiment: Ca^45 calcium flux across rumen epithelium in conventional Ussing chambers, thymol vs basal value; format: cell-based, one cow, one sheep; conditions: after adding thymol; N=2, n=44 epithelia; FIG. 10B
# Text: (§1) Supplementary, the transport rate of a substance across the epithelium is quantitatively determined by examining the buffer solution prior to and after a defined test period (in conjunction with the methods of an aspect of the present invention for determining the ammonia flux by means of an ammonia electrode (Thermo Scientific Orion 9512HPBNWP, Thermo Fisher Scientific Inc., Waltham, Mass. 02454) while at the same time registering shifts in the solution pH, or measuring the calcium flux with radioactive isotopes).
# (§2) For a direct verification of a modulation of the calcium transport across the rumen epithelium, a radioactive calcium isotope (Ca^45) was employed in further experiments. The measurements were carried out in conventional Ussing chambers without continuous perfusion. Herein, tissue of N=4 (cattle) was collected and n=85 epithelia were used therein.
# (§3) The isotope was employed on the mucosal side (corresponding to the side on which the food is) and the emergence on the blood side was measured.
# Approach: First, a basal value of the Ca flux across the rumen epithelium was detected. Then a substance was added. The subsequently measured Ca flux was compared to the starting value (100%). […]
# [7] = biological target: TRPM8 (Homo sapiens, UniProt Q7Z2W7); conditions: cited from earlier work
# [8] = test system: rumen epithelium; experiment: Ca^45 calcium flux across rumen epithelium in conventional Ussing chambers, menthol vs control group; format: cell-based; conditions: menthol 200 μM or 1 mM; N=4 cattle, n=85 epithelia; FIG. 10A
# Text: as §1, §2, §3
# Approach: Three groups were formed. One group remained untreated as control. The other two groups were each treated with menthol at a dose of 200 μM or 1 mM, respectively, and compared to the control (100%).
# [9] = biological target: TRPA1 (Homo sapiens, UniProt O75762); conditions: cited from earlier work
# [10] = test system: E. coli; conditions: 0.3% menthol in feed dry mass (8 g menthol/day) for 30 days, bulls; cited from earlier work
# [11] = biological target: T2, TRPV2 (Homo sapiens, UniProt Q9Y5S1); conditions: cited from earlier work
# T2 sequence (Q9Y5S1 1-764): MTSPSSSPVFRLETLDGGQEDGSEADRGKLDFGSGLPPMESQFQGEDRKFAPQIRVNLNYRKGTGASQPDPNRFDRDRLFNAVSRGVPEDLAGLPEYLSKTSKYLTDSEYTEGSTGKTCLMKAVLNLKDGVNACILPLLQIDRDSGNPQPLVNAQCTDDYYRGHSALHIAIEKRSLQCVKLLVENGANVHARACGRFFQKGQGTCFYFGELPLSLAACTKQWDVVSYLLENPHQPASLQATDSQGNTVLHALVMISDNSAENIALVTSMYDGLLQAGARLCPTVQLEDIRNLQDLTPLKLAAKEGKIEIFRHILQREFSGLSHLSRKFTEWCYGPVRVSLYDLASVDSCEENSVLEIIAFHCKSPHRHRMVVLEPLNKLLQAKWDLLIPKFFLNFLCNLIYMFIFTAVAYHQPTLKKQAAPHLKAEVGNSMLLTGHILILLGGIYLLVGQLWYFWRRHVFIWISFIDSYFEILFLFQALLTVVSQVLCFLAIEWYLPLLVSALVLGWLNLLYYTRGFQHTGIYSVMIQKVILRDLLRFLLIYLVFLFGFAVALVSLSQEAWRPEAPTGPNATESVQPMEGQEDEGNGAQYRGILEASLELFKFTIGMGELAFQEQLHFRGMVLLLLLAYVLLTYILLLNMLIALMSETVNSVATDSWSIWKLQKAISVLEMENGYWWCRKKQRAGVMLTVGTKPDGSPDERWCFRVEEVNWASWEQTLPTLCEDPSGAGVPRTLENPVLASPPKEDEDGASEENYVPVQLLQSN
# [12] = biological target: TRPV4 (Homo sapiens, UniProt Q9HBA0); conditions: cited from earlier work
# Sequence of TRPV4 (Q9HBA0 whole entry, species assumed): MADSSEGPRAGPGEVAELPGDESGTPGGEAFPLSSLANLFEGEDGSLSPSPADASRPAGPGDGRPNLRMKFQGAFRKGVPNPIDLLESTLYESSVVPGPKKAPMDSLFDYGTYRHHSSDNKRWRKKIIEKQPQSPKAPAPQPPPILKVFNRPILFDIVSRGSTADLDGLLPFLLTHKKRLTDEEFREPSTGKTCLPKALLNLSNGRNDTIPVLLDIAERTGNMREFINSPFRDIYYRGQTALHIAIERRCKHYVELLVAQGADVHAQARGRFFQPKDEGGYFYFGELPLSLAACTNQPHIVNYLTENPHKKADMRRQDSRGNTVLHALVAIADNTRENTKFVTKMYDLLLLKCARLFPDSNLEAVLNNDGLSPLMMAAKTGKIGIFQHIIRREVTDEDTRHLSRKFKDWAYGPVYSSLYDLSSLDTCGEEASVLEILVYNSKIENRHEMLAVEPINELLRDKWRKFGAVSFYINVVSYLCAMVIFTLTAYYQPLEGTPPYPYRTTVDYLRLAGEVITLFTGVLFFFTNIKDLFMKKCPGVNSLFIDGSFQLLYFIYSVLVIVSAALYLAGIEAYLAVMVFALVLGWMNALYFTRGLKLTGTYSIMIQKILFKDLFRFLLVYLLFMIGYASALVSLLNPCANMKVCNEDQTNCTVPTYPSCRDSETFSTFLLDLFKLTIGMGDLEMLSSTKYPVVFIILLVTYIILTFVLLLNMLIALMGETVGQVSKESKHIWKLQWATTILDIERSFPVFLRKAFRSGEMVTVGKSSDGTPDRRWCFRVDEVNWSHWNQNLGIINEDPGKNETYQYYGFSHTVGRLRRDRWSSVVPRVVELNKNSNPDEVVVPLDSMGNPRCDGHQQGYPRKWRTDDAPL
# Sequence of TRPM8 (Q7Z2W7 whole entry, species assumed): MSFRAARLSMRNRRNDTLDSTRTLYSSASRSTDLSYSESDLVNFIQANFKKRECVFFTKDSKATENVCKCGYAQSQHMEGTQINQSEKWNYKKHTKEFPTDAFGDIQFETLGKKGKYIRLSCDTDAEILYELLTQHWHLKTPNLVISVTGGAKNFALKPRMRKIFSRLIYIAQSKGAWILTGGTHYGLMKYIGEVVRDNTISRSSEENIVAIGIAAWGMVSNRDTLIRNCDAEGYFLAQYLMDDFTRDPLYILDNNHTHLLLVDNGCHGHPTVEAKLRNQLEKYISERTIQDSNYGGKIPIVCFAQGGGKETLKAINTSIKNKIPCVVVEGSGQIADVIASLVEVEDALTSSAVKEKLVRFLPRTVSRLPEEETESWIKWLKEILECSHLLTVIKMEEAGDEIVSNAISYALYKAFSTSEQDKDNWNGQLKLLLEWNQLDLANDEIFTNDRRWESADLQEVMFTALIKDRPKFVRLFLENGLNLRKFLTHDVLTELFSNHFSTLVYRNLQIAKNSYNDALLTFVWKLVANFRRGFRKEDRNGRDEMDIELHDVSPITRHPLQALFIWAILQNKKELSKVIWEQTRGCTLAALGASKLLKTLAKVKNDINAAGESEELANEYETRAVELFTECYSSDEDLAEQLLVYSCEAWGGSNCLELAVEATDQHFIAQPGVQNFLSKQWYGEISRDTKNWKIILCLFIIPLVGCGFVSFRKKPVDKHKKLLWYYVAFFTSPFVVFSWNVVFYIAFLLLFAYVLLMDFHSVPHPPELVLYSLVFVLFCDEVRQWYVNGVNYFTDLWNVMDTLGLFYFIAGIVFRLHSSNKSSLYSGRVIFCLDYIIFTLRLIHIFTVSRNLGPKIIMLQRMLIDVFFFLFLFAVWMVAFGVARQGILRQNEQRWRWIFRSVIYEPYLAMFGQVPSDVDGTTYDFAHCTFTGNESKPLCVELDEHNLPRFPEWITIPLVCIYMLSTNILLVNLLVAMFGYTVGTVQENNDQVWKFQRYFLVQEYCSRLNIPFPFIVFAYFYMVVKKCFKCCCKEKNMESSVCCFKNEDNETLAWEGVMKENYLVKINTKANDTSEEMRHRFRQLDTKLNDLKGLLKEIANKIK
# Sequence of TRPA1 (O75762 whole entry, species assumed): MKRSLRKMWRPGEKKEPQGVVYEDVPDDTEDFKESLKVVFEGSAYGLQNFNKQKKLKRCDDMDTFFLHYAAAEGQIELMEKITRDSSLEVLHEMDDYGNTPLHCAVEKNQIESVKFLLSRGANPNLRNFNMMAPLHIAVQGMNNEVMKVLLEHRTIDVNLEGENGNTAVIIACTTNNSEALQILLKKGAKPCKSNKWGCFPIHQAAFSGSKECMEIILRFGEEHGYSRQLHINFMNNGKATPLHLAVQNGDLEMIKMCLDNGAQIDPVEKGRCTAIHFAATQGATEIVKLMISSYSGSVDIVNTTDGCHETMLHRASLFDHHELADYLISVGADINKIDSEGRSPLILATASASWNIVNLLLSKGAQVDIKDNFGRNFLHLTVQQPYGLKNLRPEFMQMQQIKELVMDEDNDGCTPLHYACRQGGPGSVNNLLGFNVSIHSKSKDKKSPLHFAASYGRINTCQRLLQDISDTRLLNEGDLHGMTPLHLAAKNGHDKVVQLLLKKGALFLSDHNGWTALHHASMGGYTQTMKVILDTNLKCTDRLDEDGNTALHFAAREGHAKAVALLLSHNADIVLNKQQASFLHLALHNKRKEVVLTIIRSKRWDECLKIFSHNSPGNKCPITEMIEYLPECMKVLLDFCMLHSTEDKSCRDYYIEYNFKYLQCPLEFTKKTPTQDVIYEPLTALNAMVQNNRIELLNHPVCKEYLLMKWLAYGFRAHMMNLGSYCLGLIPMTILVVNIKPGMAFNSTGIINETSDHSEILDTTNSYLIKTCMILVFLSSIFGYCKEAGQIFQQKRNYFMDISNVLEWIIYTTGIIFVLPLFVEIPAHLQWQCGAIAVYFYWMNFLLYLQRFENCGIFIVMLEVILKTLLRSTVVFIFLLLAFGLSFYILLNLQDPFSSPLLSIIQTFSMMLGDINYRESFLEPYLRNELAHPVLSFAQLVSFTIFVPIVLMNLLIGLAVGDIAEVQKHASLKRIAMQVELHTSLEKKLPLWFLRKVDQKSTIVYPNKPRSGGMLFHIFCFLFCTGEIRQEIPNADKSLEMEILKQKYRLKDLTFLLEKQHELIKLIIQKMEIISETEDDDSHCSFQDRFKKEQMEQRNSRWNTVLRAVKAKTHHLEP
smiles,measurement,setting,value
Cc1ccc(C(C)C)c(O)c1 [thymol],"transepithelial current, Median","[1]; 100 μM thymol in 40 mM NH4^+, n=4, before −19.30",−19.35 μA · cm^−2
same,"transepithelial current, MV","[1]; 100 μM thymol in 40 mM NH4^+, n=4, before −22.47, washout −15.82, p = 0.498",−22.19 μA · cm^−2
same,influence on ammonium-induced conductivity / transport across rumen epithelium (profile in words),[1],"inhibition, which can still be verified after washing out"
same,effect on the bacteria flora in the ruminal fluid,[2],no effect on the bacteria flora in the ruminal fluid
same,"influence on methane, ammonium, acetate and propionate production",[3],"no influence on the methane, ammonium, acetate and propionate production"
same,"concentration with significant influence on pH, NH3 concentration and production of volatile fatty acids (VFA)",[4],≥ 500 mg/1
same,Effect on TRPV3,[5],TRPV3 agonist; also recorded: nonspecific
same,Ca flux across the rumen epithelium compared to starting value (100%),[6],no significant long-term reduction of the calcium transport; also recorded: trend to increase the calcium resorption
CC1CCC(C(C)C)C(O)C1 (centres unmarked) [menthol],Effect on TRPM8,[7],potent TRPM8 agonist
same,calcium transport across the rumen tissue compared to control group (100%),[8],concentration-dependent increase in the calcium transport
same,"transepithelial current, Median","[1]; 200 μM menthol in 40 mM NH4^+, n=11, before −30.65",−34.21 μA · cm^−2
same,"transepithelial current, MV","[1]; 200 μM menthol in 40 mM NH4^+, n=11, before −30.99, washout −26.42",−36.34 μA · cm^−2
same,change of transepithelial current or voltage,"[1]; 200 μmol·l^−1 to 1 mmol·l^−1 added to solution containing ammonium, apical",further considerable rise in the transepithelial current
same,change of short-circuit current (Isc),"[1]; 1 mM menthol after 40 mM NH4Cl mucosal, FIG. 1 and 2, 13 measurements, three epithelia",further rise in that current; also recorded: statistically significant increase in the current across the epithelium
same,"transepithelial current, Median","[1]; 1 mM menthol in 40 mM NH4^+, n=12, before −22.76",−26.90 μA · cm^−2
same,"transepithelial current, MV","[1]; 1 mM menthol in 40 mM NH4^+, n=12, before −24.20, washout −20.88",−28.73 μA · cm^−2
same,influence on ammonium-induced conductivity / transport across rumen epithelium (profile in words),[1],significantly influenced
same,Effect on TRPV3,[5],nonspecific
same,Effect on TRPA1,[9],Antagonist
same,influence on the amount of E. coli in the feces,[10],no influence on the amount of E. coli in the feces
"CCCCCc1cc(O)c2c(c1)OC(C)(C)[C@@H]1CCC(C)=C[C@@H]21 [Tetrahydrocannabinol, tetrahydrocannabinol]",Effect on TRPV2,[11],Agonist
same,Effect on TRPA1,[9],Agonist
C=C1CC[C@@H]2[C@](C)(CO)[C@H](O)CC[C@@]2(C)[C@@H]1/C=C/C1=CC(C(C[C@@H]2C(=C)CC[C@@H]3[C@](C)(CO)[C@H](O)CC[C@]32C)C2=CCOC2=O)OC1=O (some centres unmarked) [Bisandrographolide A],Effect on TRPV4,[12],Agonist
